Reference: US10966978B2, “Dose and regimen for HDM2-p53 interaction inhibitors” (Novartis AG, priority 2016, dated 2021)
Where two headings read alike, the source gives them in different places.

Test system: patients with advanced TP53 wild-type (WT) leukemias

COc1ncc(-c2nc3c(n2C(C)C)[C@H](c2ccc(Cl)cc2)N(c2cc(Cl)cn(C)c2=O)C3=O)c(OC)n1 [HDM201, (S)-5-(5-Chloro-1-methyl-2-oxo-1,2-dihydro-pyridin-3-yl)-6-(4-chloro-phenyl)-2-(2,4-dimethoxy-pyrimidin-5-yl)-1-isopropyl-5,6-dihydro-1H-pyrrolo[3,4-d]imidazol-4-one]
AE: Blood Creatinine Increased (Regimen 2A N = 7, All Grades): 1 (14.3) n (%)
AE: Blood Phosphorus Increased (Regimen 2A N = 7, All Grades): 0 n (%)
AE: Blood Uric Acid Increased (Regimen 2A N = 7, All Grades): 0 n (%)
AE: Bone Marrow Failure (Regimen 2A N = 7, All Grades): 1 (14.3) n (%)
AE: C-Reactive Protein Increased (Regimen 2A N = 7, All Grades): 1 (14.3) n (%)
AE: Cardiac Failure (Regimen 2A N = 7, All Grades): 0 n (%)
AE: Cellulitis (Regimen 2A N = 7, All Grades): 0 n (%)
AE: Chronic Graft Versus Host Disease (Regimen 2A N = 7, All Grades): 0 n (%)
AE: Conjunctival Haemorrhage (Regimen 2A N = 7, All Grades): 0 n (%)
AE: Cough (Regimen 2A N = 7, All Grades): 0 n (%)
AE: Cystitis Viral (Regimen 2A N = 7, All Grades): 0 n (%)
AE: Cytomegalovirus Infection (Regimen 2A N = 7, All Grades): 1 (14.3) n (%)
AE: Decreased Appetite (Regimen 2A N = 7, All Grades): 1 (14.3) n (%)
AE: Diarrhoea (Regimen 2A N = 7, All Grades): 0 n (%)
AE: Dyspepsia (Regimen 2A N = 7, All Grades): 1 (14.3) n (%)
AE: Dyspnoea (Regimen 2A N = 7, All Grades): 0 n (%)
AE: Epistaxis (Regimen 2A N = 7, All Grades): 0 n (%)
AE: Fatigue (Regimen 2A N = 7, All Grades): 0 n (%)
AE: Febrile Neutropenia (Regimen 2A N = 7, All Grades): 2 (28.6) n (%)
AE: Gamma-Glutamyltransferase Increased (Regimen 2A N = 7, All Grades): 0 n (%)
AE: General Physical Health Deterioration (Regimen 2A N = 7, All Grades): 0 n (%)
AE: Gingival Bleeding (Regimen 2A N = 7, All Grades): 0 n (%)
AE: Graft Versus Host Disease (Regimen 2A N = 7, All Grades): 0 n (%)
AE: Haemoglobin Decreased (Regimen 2A N = 7, All Grades): 0 n (%)
AE: Headache (Regimen 2A N = 7, All Grades): 0 n (%)
AE: Hyperbilirubinaemia (Regimen 2A N = 7, All Grades): 1 (14.3) n (%)
AE: Hyperglycaemia (Regimen 2A N = 7, All Grades): 0 n (%)
AE: Hyperkalaemia (Regimen 2A N = 7, All Grades): 0 n (%)
AE: Hyperphosphataemia (Regimen 2A N = 7, All Grades): 0 n (%)
AE: Hyperuricaemia (Regimen 2A N = 7, All Grades): 1 (14.3) n (%)
AE: Hypoalbuminaemia (Regimen 2A N = 7, All Grades): 0 n (%)
AE: Hypocalcaemia (Regimen 2A N = 7, All Grades): 0 n (%)
AE: Hypokalaemia (Regimen 2A N = 7, All Grades): 0 n (%)
AE: Hypomagnesaemia (Regimen 2A N = 7, All Grades): 0 n (%)
AE: Hyponatraemia (Regimen 2A N = 7, All Grades): 0 n (%)
AE: Hypophosphataemia (Regimen 2A N = 7, All Grades): 0 n (%)
AE: Hypotension (Regimen 2A N = 7, All Grades): 0 n (%)
AE: Infection (Regimen 2A N = 7, All Grades): 0 n (%)
AE: Infective Glossitis (Regimen 2A N = 7, All Grades): 0 n (%)
AE: Iron Overload (Regimen 2A N = 7, All Grades): 0 n (%)
AE: Leukopenia (Regimen 2A N = 7, All Grades): 0 n (%)
AE: Lip Oedema (Regimen 2A N = 7, All Grades): 0 n (%)
AE: Lipase Increased (Regimen 2A N = 7, All Grades): 0 n (%)
AE: Macular Oedema (Regimen 2A N = 7, All Grades): 0 n (%)
AE: Malaise (Regimen 2A N = 7, All Grades): 1 (14.3) n (%)
AE: Mouth Haemorrhage (Regimen 2A N = 7, All Grades): 0 n (%)
AE: Nausea (Regimen 2A N = 7, All Grades): 3 (42.9) n (%)
AE: Neutropenia/Neutrophil Count Decreased (Regimen 2A N = 7, All Grades): 1 (14.3) n (%)
AE: Oedema (Regimen 2A N = 7, All Grades): 0 n (%)
AE: Oedema Peripheral (Regimen 2A N = 7, All Grades): 0 n (%)
AE: Oral Disorder (Regimen 2A N = 7, All Grades): 0 n (%)
AE: Pain In Extremity (Regimen 2A N = 7, All Grades): 0 n (%)
AE: Pancytopenia (Regimen 2A N = 7, All Grades): 0 n (%)
AE: Pneumonia (Regimen 2A N = 7, All Grades): 0 n (%)
AE: Pollakiuria (Regimen 2A N = 7, All Grades): 0 n (%)
AE: Pyrexia (Regimen 2A N = 7, All Grades): 1 (14.3) n (%)
AE: Rash (Regimen 2A N = 7, All Grades): 0 n (%)
AE: Rash Erythematous (Regimen 2A N = 7, All Grades): 0 n (%)
AE: Rash Papular (Regimen 2A N = 7, All Grades): 0 n (%)
AE: Rectal Haemorrhage (Regimen 2A N = 7, All Grades): 0 n (%)
AE: Renal Failure (Regimen 2A N = 7, All Grades): 0 n (%)
AE: Skin Exfoliation (Regimen 2A N = 7, All Grades): 0 n (%)
AE: Stomatitis (Regimen 2A N = 7, All Grades): 0 n (%)
AE: Subarachnoid Haemorrhage (Regimen 2A N = 7, All Grades): 0 n (%)
AE: Thrombocytopenia/Platelet Count Decreased (Regimen 2A N = 7, All Grades): 2 (28.6) n (%)
AE: Total (Regimen 2A N = 7, All Grades): 5 (71.4) n (%)
AE: Tumour Lysis Syndrome (Regimen 2A N = 7, All Grades): 1 (14.3) n (%)
AE: Vomiting (Regimen 2A N = 7, All Grades): 1 (14.3) n (%)
AE: Weight Decreased (Regimen 2A N = 7, All Grades): 0 n (%)
AE: White Blood Cell Count Decreased (Regimen 2A N = 7, All Grades): 1 (14.3) n (%)
AE: Abdominal Discomfort (Regimen 2A N = 7, Grade 3/4): 0 n (%)
AE: Abdominal Pain (Regimen 2A N = 7, Grade 3/4): 0 n (%)
AE: Abdominal Pain Upper (Regimen 2A N = 7, Grade 3/4): 0 n (%)
AE: Acute Kidney Injury (Regimen 2A N = 7, Grade 3/4): 0 n (%)
AE: Amylase Increased (Regimen 2A N = 7, Grade 3/4): 0 n (%)
AE: Anaemia (Regimen 2A N = 7, Grade 3/4): 2 (28.6) n (%)
AE: Arthralgia (Regimen 2A N = 7, Grade 3/4): 0 n (%)
AE: Asthenia (Regimen 2A N = 7, Grade 3/4): 0 n (%)
AE: Atrial Fibrillation (Regimen 2A N = 7, Grade 3/4): 0 n (%)
AE: Atypical Pneumonia (Regimen 2A N = 7, Grade 3/4): 0 n (%)
AE: Balanitis Candida (Regimen 2A N = 7, Grade 3/4): 0 n (%)
AE: Blood Alkaline Phosphatase Increased (Regimen 2A N = 7, Grade 3/4): 0 n (%)
AE: Blood Bilirubin Increased (Regimen 2A N = 7, Grade 3/4): 0 n (%)
AE: Blood Creatinine Increased (Regimen 2A N = 7, Grade 3/4): 0 n (%)
AE: Blood Phosphorus Increased (Regimen 2A N = 7, Grade 3/4): 0 n (%)
AE: Blood Uric Acid Increased (Regimen 2A N = 7, Grade 3/4): 0 n (%)
AE: Bone Marrow Failure (Regimen 2A N = 7, Grade 3/4): 1 (14.3) n (%)
AE: C-Reactive Protein Increased (Regimen 2A N = 7, Grade 3/4): 1 (14.3) n (%)
AE: Cardiac Failure (Regimen 2A N = 7, Grade 3/4): 0 n (%)
AE: Cellulitis (Regimen 2A N = 7, Grade 3/4): 0 n (%)
AE: Chronic Graft Versus Host Disease (Regimen 2A N = 7, Grade 3/4): 0 n (%)
AE: Conjunctival Haemorrhage (Regimen 2A N = 7, Grade 3/4): 0 n (%)
AE: Cough (Regimen 2A N = 7, Grade 3/4): 0 n (%)
AE: Cystitis Viral (Regimen 2A N = 7, Grade 3/4): 0 n (%)
AE: Cytomegalovirus Infection (Regimen 2A N = 7, Grade 3/4): 0 n (%)
AE: Decreased Appetite (Regimen 2A N = 7, Grade 3/4): 0 n (%)
AE: Diarrhoea (Regimen 2A N = 7, Grade 3/4): 0 n (%)
AE: Dyspepsia (Regimen 2A N = 7, Grade 3/4): 0 n (%)
AE: Dyspnoea (Regimen 2A N = 7, Grade 3/4): 0 n (%)
AE: Epistaxis (Regimen 2A N = 7, Grade 3/4): 0 n (%)
AE: Fatigue (Regimen 2A N = 7, Grade 3/4): 0 n (%)
AE: Febrile Neutropenia (Regimen 2A N = 7, Grade 3/4): 2 (28.6) n (%)
AE: Gamma-Glutamyltransferase Increased (Regimen 2A N = 7, Grade 3/4): 0 n (%)
AE: General Physical Health Deterioration (Regimen 2A N = 7, Grade 3/4): 0 n (%)
AE: Gingival Bleeding (Regimen 2A N = 7, Grade 3/4): 0 n (%)
AE: Graft Versus Host Disease (Regimen 2A N = 7, Grade 3/4): 0 n (%)
